Tested on: pancreatic cancer cell line SW1990
Assay: Relative quantitation of sialylated N-glycans from SW1990 cells with and without 1,3,4-O-Bu3ManNAc treatment (light/heavy p-toluidine labeling, MALDI-MS)
Format: cell-based
Details: for H/L: SW1990 cells treated (heavy) vs untreated (light), glycan Core+Na
Procedure: Proteins were immobilized to amino link beads via reductive amination. Briefly, AminoLink resin (200 μL) was loaded onto snap-cap spin-column, centrifuged at 2000 g for 1 minute. Resin was washed with 450 μL of pH 10 buffer (Sodium citrate 100 mM and sodium carbonate 50 mM) followed by centrifugation. The washing step was repeated twice. Proteins dissolved in pH 10 buffer were loaded onto prepared AminoLink resin in snap-cap spin-column in 1 mg/200 μL beads ratio. The volume was adjusted to 450 μL using pH 10 buffer. Sample-resin mixture was incubated at room temperature overnight. The mixture was centrifuged at 2000 g to remove any unbound protein. Resin was rinsed by 1×PBS buffer (Sigma-Aldrich; pH 7.4; 450 μL) three times. PBS buffer in the presence of 50 mM sodium cyanoborohydride (450 μL) was added to resin (spin-column capped during each incubation step). After a four hour incubation, supernatant was removed via centrifugation (2000 g) and 450 μL of 1 M Tris-HCl (pH 7.6) in the presence of 50 mM sodium cyanoborohydride was added to block un-reacted aldehyde sites of resin. The blocking process was terminated after 1 hour, followed by washing of resin with PBS twice, 1M […] twice and water three times.
Proteins conjugated on solid support were mixed with 450 μL of 1M p-toluidine and 40 μL of EDC at pH 4.5 adjusted using HCl. After incubation for 4 hours, beads were washed twice with 500 μL of 1M NaCl and water followed by 50 mM ammonium bicarbonate, three times for each solution, and treated with 100 units of PNGase F in 0.3 mL of 50 mM ammonium bicarbonate overnight at 37° C. to release N-glycans from proteins. Nglycans released in the supernatant were subsequently collected. The N-glycans released from glycoproteins were further purified and concentrated over Carbograph columns (Extract-Clean SPE Carbo 150 mg; Grace Division Discovery Science; Deerfield, Ill.) and eluted in 0.1% TFA 50% acetonitrile/water following the manufacturer's instruction (Grace Davison Discovery Sciences, Milwaukee, Wis.). Glycans were then dried in Savant Speed-Vac (Thermo Scientific, Asheville, N.C.).
Glycans were resuspended in 20 μL of water. Sample 1.5 μL was mixed 1.5 μL of matrix on a 384-well goals MALDI plate (Hudson Surface Technology, Fort Lee, N.J.). DHB matrix solution was prepared by dissolving 100 mg of DHB in 1 mL of a 1:1 solution of water and ACN followed by addition of 40 μL of dimethylaniline. Glycans were analyzed by Shimadzu AXIMA Resonance Mass Spectrometer (Shimadzu, Columbia, Md.) in positive mode.
It has been well established that the extent of glycan sialylation depends on sialyltransferases, the biosynthetic enzymes responsible for adding a sialic acid to an underlying galactose or GalNAc residue. […] To fill this void, in the present invention we profiled N-glycans in SW1990 treated with 1,3,4-O-Bu3ManNAc as previously described. Protein extract from 1,3,4-O-Bu3ManNAc treated SW1990 cells and untreated control cells were conjugated to solid support and labeled with isotopic p-toluidine as described above. The mass spectrometric analysis of labeled glycans identified 87 N-glycans based on accurate mass (data not shown). Sialic acid compositional assignment was determined based on the differences of heavy and light labeled glycans. Twenty one heavy and light glycan peaks were identified with a mass shift of 7 or a multiple of 7, confirming that the presence of 21 sialylated glycans (FIGS. 13A and 13B). Qualitative analysis of N-glycans from cells with and without ManNAc treatment using isotopic labeling of sialylated N-glycans with 1:1 combined samples identified and quantified 14 sialylated glycans (Table 5). Seven other sialylated Nglycans could not be quantified due to low signal to noise ratio when the two samples were combined for MS analysis.

CCCC(=O)OC1O[C@H](CO)[C@@H](OC(=O)CCC)[C@H](OC(=O)CCC)[C@@H]1NC(C)=O (stereo partly shown) [1,3,4-O—Bu3ManNAc, 1,3,4-O-Bu3ManNAc]
H/L (Fucose 0, HexNAc 2, Hexose 2, Sialic Acid 1, [M+Na] 2043.89): 1.29
H/L (Fucose 1, HexNAc 2, Hexose 2, Sialic Acid 1, [M+Na] 2189.95): 1.09
H/L (Fucose 1, HexNAc 2, Hexose 2, Sialic Acid 2, [M+Na] 2570.21): 1.02
H/L (Fucose 1, HexNAc 3, Hexose 2, Sialic Acid 1, [M+Na] 2393.04): 1.95
H/L (Fucose 1, HexNAc 3, Hexose 2, Sialic Acid 2, [M+Na] 2773.31): 1.70
H/L (Fucose 1, HexNAc 3, Hexose 3, Sialic Acid 1, [M+Na] 2555.10): 1.31
H/L (Fucose 1, HexNAc 3, Hexose 3, Sialic Acid 2, [M+Na] 2935.36): 0.98
H/L (Fucose 1, HexNAc 4, Hexose 3, Sialic Acid 1, [M+Na] 2758.19): 1.66
H/L (Fucose 2, HexNAc 2, Hexose 2, Sialic Acid 1, [M+Na] 2336.01): 1.10
H/L (Fucose 2, HexNAc 3, Hexose 2, Sialic Acid 1, [M+Na] 2539.10): 1.31
H/L (Fucose 2, HexNAc 3, Hexose 3, Sialic Acid 1, [M+Na] 2701.15): 1.03
H/L (Fucose 2, HexNAc 4, Hexose 3, Sialic Acid 1, [M+Na] 2904.25): 2.04
H/L (Fucose 3, HexNAc 3, Hexose 2, Sialic Acid 1, [M+Na] 2585.15): 1.00
H/L (Fucose 3, HexNAc 4, Hexose 3, Sialic Acid 1, [M+Na] 3050.31): 1.39
decrease in sialylated N-glycans when cells were treated (SW1990 cells, treated vs untreated): no significant decrease
number of sialylated N-glycan compositions with a significant increase in abundance (SW1990 cells, treated vs untreated, 14 sialylated glycans quantified): six

Source: patent US20150233903A1, “SOLID PHASE GLYCAN AND GLYCOPEPTIDE ANALYSIS AND MICROFLUIDIC CHIP FOR GLYCOMIC EXTRACTION, ANALYSIS AND METHODS FOR USING SAME” (THE JOHNS HOPKINS UNIVERSITY, priority 2012, published 2015)
